Test system: 883617-216-R-J1-PDC complex spheroid viability
Assay: Anticancer human tumor 883617-216-R-J1-PDC patient-derived bladder carcinoma cell line growth inhibition [POLQ]
Conditions: for IC50: curve of first compound; for viability, T/C: stronger effect = lower value
Outline: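 Patient-derived tumour cells were co-cultured with HUVEC and mesenchymal stem cells as multicellular spheroids at 37 °C. They were treated with POLQ inhibitors (novobiocin, ART-558, RP6685) alone or combined with other agents. Top concentrations were at or near clinical Cmax (otherwise 10 microM; SN-38 at 1 microM), decreasing in half-log steps.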

[1] = second compound 0.0316 µM, first compound 0.0316 µM
[2] = second compound 0.0316 µM, first compound 0.1 µM
[3] = second compound 0.1 µM, first compound 0.0316 µM
[4] = second compound 0.1 µM, first compound 0.1 µM
[5] = second compound 0.316 µM, first compound 0.0316 µM
[6] = second compound 0.316 µM, first compound 0.1 µM
[7] = second compound 1 µM, first compound 0.0316 µM
[8] = second compound 1 µM, first compound 0.1 µM
[9] = second compound 3.16 µM, first compound 0.0316 µM
[10] = second compound 3.16 µM, first compound 0.1 µM
[11] = second compound 10 µM, first compound 0.0316 µM
[12] = second compound 10 µM, first compound 0.1 µM
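Note: spheroids exposed to compounds for seven days before readout.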
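Throughout, for viability, T/C: 100% = DMSO vehicle control viability.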

Question: COc1cccc2c1C(=O)c1c(O)c3c(c(O)c1C2=O)CC(O)(C(=O)CO)CC3OC1CC(N)C(O)C(C)O1 (centres undefined) + Cc1cccc(N(C)C(=O)C2C(O)CCN2c2nc(C)cc(C(F)(F)F)c2C#N)c1 was tested. Which IC50 (second compound 0.0316 µM) did it give?
Answer: 0.311 µM

Question: And the IC50 (second compound 0.1 µM)?
Answer: 0.228 µM

Question: And the IC50 (second compound 0.316 µM)?
Answer: 0.222 µM

Question: And the IC50 (second compound 1 µM)?
Answer: 0.359 µM

Question: What about the IC50 (second compound 3.16 µM) of the same compound?
Answer: 0.206 µM

Question: And the IC50 (second compound 10 µM)?
Answer: 0.33 µM

Question: What about the viability, T/C [1] of the same compound?
Answer: 78%

Question: What about the viability, T/C [2] of the same compound?
Answer: 60.8%

Question: What about the viability, T/C (second compound 0.0316 µM, first compound 0.316 µM) of the same compound?
Answer: 52.2%

Question: And the viability, T/C (second compound 0.0316 µM, first compound 1 µM)?
Answer: 9.43%

Question: And the viability, T/C (second compound 0.0316 µM, first compound 3.16 µM)?
Answer: 0.22%

Question: And the viability, T/C (second compound 0.0316 µM, first compound 10 µM)?
Answer: 0.21%

Question: What about the viability, T/C [3] of the same compound?
Answer: 66.1%

Question: And the viability, T/C [4]?
Answer: 67.9%

Question: What about the viability, T/C (second compound 0.1 µM, first compound 0.316 µM) of the same compound?
Answer: 43.2%

Question: What about the viability, T/C (second compound 0.1 µM, first compound 1 µM) of the same compound?
Answer: 8.29%

Question: What about the viability, T/C (second compound 0.1 µM, first compound 3.16 µM) of the same compound?
Answer: 0.32%

Question: What about the viability, T/C (second compound 0.1 µM, first compound 10 µM) of the same compound?
Answer: 0.2%

Question: And the viability, T/C [5]?
Answer: 74.3%

Question: And the viability, T/C [6]?
Answer: 59.8%

Question: And the viability, T/C (second compound 0.316 µM, first compound 0.316 µM)?
Answer: 45.4%

Question: What about the viability, T/C (second compound 0.316 µM, first compound 1 µM) of the same compound?
Answer: 6.2%

Question: And the viability, T/C (second compound 0.316 µM, first compound 3.16 µM)?
Answer: 0.22%

Question: And the viability, T/C (second compound 0.316 µM, first compound 10 µM)?
Answer: 0.2%

Question: And the viability, T/C [7]?
Answer: 65.1%

Question: What about the viability, T/C [8] of the same compound?
Answer: 57.5%

Question: And the viability, T/C (second compound 1 µM, first compound 0.316 µM)?
Answer: 55.6%

Question: And the viability, T/C (second compound 1 µM, first compound 1 µM)?
Answer: 5.25%

Question: What about the viability, T/C (second compound 1 µM, first compound 3.16 µM) of the same compound?
Answer: 0.22%

Question: What about the viability, T/C (second compound 1 µM, first compound 10 µM) of the same compound?
Answer: 0.2%

Question: What about the viability, T/C [9] of the same compound?
Answer: 66.8%

Question: And the viability, T/C [10]?
Answer: 57.3%

Question: And the viability, T/C (second compound 3.16 µM, first compound 0.316 µM)?
Answer: 43.7%

Question: What about the viability, T/C (second compound 3.16 µM, first compound 1 µM) of the same compound?
Answer: 3.99%

Question: And the viability, T/C (second compound 3.16 µM, first compound 3.16 µM)?
Answer: 0.31%

Question: And the viability, T/C (second compound 3.16 µM, first compound 10 µM)?
Answer: 0.29%

Question: And the viability, T/C [11]?
Answer: 66%

Question: What about the viability, T/C [12] of the same compound?
Answer: 58.1%

Question: What about the viability, T/C (second compound 10 µM, first compound 0.316 µM) of the same compound?
Answer: 51.9%

Question: And the viability, T/C (second compound 10 µM, first compound 1 µM)?
Answer: 1.41%

Question: And the viability, T/C (second compound 10 µM, first compound 3.16 µM)?
Answer: 0.35%

Question: What about the viability, T/C (second compound 10 µM, first compound 10 µM) of the same compound?
Answer: 0.34%

Question: What does the source list for CC[C@@]1(O)C(=O)OCc2c1cc1n(c2=O)Cc2cc3c(CN(C)C)c(O)ccc3nc2-1 + COC1C(OC(N)=O)C(O)C(Oc2ccc3c(O)c(NC(=O)c4ccc(O)c(CC=C(C)C)c4)c(=O)oc3c2C)OC1(C)C?
Answer: IC50 (second compound 0.0316 µM): > 0.1 µM; IC50 (second compound 0.1 µM): > 0.1 µM; IC50 (second compound 0.316 µM): > 0.1 µM; IC50 (second compound 1 µM): > 0.1 µM; IC50 (second compound 3.16 µM): > 0.1 µM; IC50 (second compound 10 µM): > 0.1 µM; viability, T/C (second compound 0.0316 µM, first compound 0.000316 µM): 110%; viability, T/C (second compound 0.0316 µM, first compound 0.001 µM): 98.5%; viability, T/C (second compound 0.0316 µM, first compound 0.00316 µM): 94.7%; viability, T/C (second compound 0.0316 µM, first compound 0.01 µM): 89.1%; viability, T/C [1]: 67.4%; viability, T/C [2]: 65.2%; viability, T/C (second compound 0.1 µM, first compound 0.000316 µM): 108%; viability, T/C (second compound 0.1 µM, first compound 0.001 µM): 110%; viability, T/C (second compound 0.1 µM, first compound 0.00316 µM): 91.7%; viability, T/C (second compound 0.1 µM, first compound 0.01 µM): 85.8%; viability, T/C [3]: 55.2%; viability, T/C [4]: 60.6%; viability, T/C (second compound 0.316 µM, first compound 0.000316 µM): 95.9%; viability, T/C (second compound 0.316 µM, first compound 0.001 µM): 101%; viability, T/C (second compound 0.316 µM, first compound 0.00316 µM): 87.1%; viability, T/C (second compound 0.316 µM, first compound 0.01 µM): 81.6%; viability, T/C [5]: 58%; viability, T/C [6]: 65%; viability, T/C (second compound 1 µM, first compound 0.000316 µM): 94.9%; viability, T/C (second compound 1 µM, first compound 0.001 µM): 96.8%; viability, T/C (second compound 1 µM, first compound 0.00316 µM): 89.7%; viability, T/C (second compound 1 µM, first compound 0.01 µM): 82.3%; viability, T/C [7]: 57.3%; viability, T/C [8]: 61.7%; viability, T/C (second compound 3.16 µM, first compound 0.000316 µM): 107%; viability, T/C (second compound 3.16 µM, first compound 0.001 µM): 89.6%; viability, T/C (second compound 3.16 µM, first compound 0.00316 µM): 93.4%; viability, T/C (second compound 3.16 µM, first compound 0.01 µM): 78%; viability, T/C [9]: 65.2%; viability, T/C [10]: 57.1%; viability, T/C (second compound 10 µM, first compound 0.000316 µM): 104%; viability, T/C (second compound 10 µM, first compound 0.001 µM): 90.9%; viability, T/C (second compound 10 µM, first compound 0.00316 µM): 95.3%; viability, T/C (second compound 10 µM, first compound 0.01 µM): 88%; viability, T/C [11]: 65.6%; viability, T/C [12]: 64.9%

From PubChem BioAssay AID1963833 (Molecular Pharmacology Branch, DTP, NCI, 2024)
